Laboratory results: ChEMBL document CHEMBL1146546, “Warangalone, the isoflavonoid anti-inflammatory principle of Erythrina addisoniae stem bark” (J Nat Prod, 2003)
pIC50: −log10 of the molar value.

Experiments:
[1] = system: Mus musculus; assay: Antiinflammatory activity against Naja mossambica PLA2-induced Swiss mouse paw edema assessed as inhibition of paw volume at 5 mg/kg, ip administered before 30 mins of PLA2 challenge measured after 30 mins relative to control; assay type: functional; details: 0.5 h, route intraperitoneal
[2] = system: Mus musculus; assay: Antiinflammatory activity against Naja mossambica PLA2-induced Swiss mouse paw edema assessed as inhibition of paw volume at 5 mg/kg, ip administered before 30 mins of PLA2 challenge measured after 60 mins relative to control; assay type: functional; details: route intraperitoneal
[3] = system: Mus musculus; assay: Antiinflammatory activity against carrageenan-induced Swiss mouse paw edema assessed as inhibition of paw volume at 10 mg/kg, po administered 1 hr before carrageenan challenge measured after 5 hrs relative to control; assay type: functional
[4] = system: Mus musculus; assay: Antiinflammatory activity against TPA-induced ear edema Swiss mouse chronic dermatitis model assessed as inhibition of increase in ear weight at 0.5 mg/ear relative to control; assay type: functional
[5] = organism: Mus musculus; assay: Antiinflammatory activity against Swiss mouse chronic dermatitis model assessed as inhibition of TPA-induced tissue myeloperoxidase activity at 0.5 mg/ear applied twice daily for 4 days measured after 6 hrs relative to control; assay type: functional
[6] = system: Mus musculus; assay: Antiinflammatory activity against TPA-induced ear edema in Swiss mouse chronic dermatitis model assessed as inhibition of increase in ear weight; assay type: functional
[7] = system: Mus musculus; assay: Antiinflammatory activity against carrageenan-induced Swiss mouse paw edema assessed as inhibition of paw volume at 10 mg/kg, po administered 1 hr before carrageenan challenge measured after 1 hr relative to control; assay type: functional
[8] = system: Mus musculus; assay: Antiinflammatory activity against carrageenan-induced Swiss mouse paw edema assessed as inhibition of paw volume at 10 mg/kg, po administered 1 hr before carrageenan challenge measured after 3 hrs relative to control; assay type: functional
[9] = system: Mus musculus; assay: Antiinflammatory activity against TPA-induced ear edema in Swiss mouse chronic dermatitis model assessed as inhibition of increase in ear weight at 0.25 mg/ear relative to control; assay type: functional
[10] = organism: Mus musculus; assay: Antiinflammatory activity against Swiss mouse chronic dermatitis model assessed as inhibition of TPA-induced tissue myeloperoxidase activity at 0.25 mg/ear applied twice daily for 4 days measured after 6 hrs relative to control; assay type: functional
[11] = Inhibition of calcium ionophore A-23187/calcium-stimulated LTB4 production in rat polymorphonuclear leukocytes; assay type: functional
[12] = system: Platelet; assay: Inhibition of calcium ionophore A-23187/calcium-stimulated 12-hydroxyheptadecatrienoic acid production in human platelets; assay type: functional
[13] = Inhibition of PKC catalytic subunit

| Compound | inhibition in vivo at 5 mg/kg [1] [%] | inhibition in vivo at 5 mg/kg [2] [%] | inhibition in vivo at 10 mg/kg [3] [%] | inhibition (INH) [4] [%] | inhibition (INH) [5] [%] | ID50 [6] [µmol] | inhibition in vivo at 10 mg/kg [7] [%] | inhibition in vivo at 10 mg/kg [8] [%] | inhibition (INH) [9] [%] | inhibition (INH) [10] [%] | inhibition (INH) [11] [%] | inhibition (INH) [12] [%] | pIC50 [13] |
| --- | --- | --- | --- | --- | --- | --- | --- | --- | --- | --- | --- | --- | --- |
| CN1CCC(=C2c3ccccc3C=Cc3ccccc32)CC1 [CYPROHEPTADINE] | 66 | 63 | – | – | – | – | – | – | – | – | – | – | – |
| COc1ccc2c(c1)c(CC(=O)O)c(C)n2C(=O)c1ccc(Cl)cc1 [INDOMETHACIN] | – | – | 31 | 82 | 36 | 0.29 | 14 | 60 | – | – | – | – | – |
| CC(C)=CCc1c2c(c(O)c3c(=O)c(-c4ccc(O)cc4)coc13)C=CC(C)(C)O2 [WARANGALONE] | 21 | 68 | – | – | – | 0.54 | – | – | 78 | 41 | <20 | <20 | 5.46 |
